# Reference: patent US10765625B2, “Knottin-drug conjugates and methods of using the same” (THE BOARD OF TRUSTEES OF THE LELAND STANFORD JUNIOR …, priority 2016, dated 2020)
# Positions of bridges follow the written chain, without caps; N, C: chain ends. Non-standard residues stand in square brackets, D forms with d. Residues, ends and D or L forms follow the SMILES beside them. Orn(N3) = [N-]=[N+]=NCCC[C@H](N)C(=O)O
# Assays:
# U87MG cells [1] = test: Premature drug release study: cell proliferation (CCK-8) with hENT1 inhibitor 6 co-administered; type: cell-based; details: for Fold Increase in ED50 in U87MG Cells: ED50 with 6 / ED50 without 6, minus 1
# Description: (§1) U87MG, and PANC-1 cells were grown in Dulbecco's Modified Eagle Medium (DMEM) with 10% fetal bovine serum (FBS) and 1% penicillin/streptomycin. MDA-MB-468 cells were grown in DMEM and Ham's F-12 medium (DMEM/F12) with 10% FBS and 1% penicillin/streptomycin. A2780 and BxPC3 cells were grown in Roswell Park Memorial Institute medium (RPMI) 1640+L-glutamine, with 10% FBS and 1% penicillin/streptomycin. D270 cells were grown in MEM (Richter's modification, no phenol red) with 10% FBS and 0.1% Gentamicin. Unless otherwise specified, cells were incubated at 37° C., 5% CO2. Flow cytometry was performed using an EMD Millpore Guava EasyCyte 8HT flow cytometer and the resulting data were evaluated using FlowJo software provided by TreeStar, Inc. Cell proliferation was measured using the Dojindo Cell Counting Kit-8 by replacing the media in each well with 100 μL of media containing 10% WST-8. After incubation for 1 h at 37° C., absorbance, A, at 450 nm was measured with a BioTek Synergy H4 microtiter plate reader. The background signal of CCK-8 alone was subtracted from all samples. Cell proliferation was then expressed as a percentage of absorbance relative to the control of untreated cells (Equation 2). Nonlinear regression analysis was performed using GraphPad Prism.
# The relative extent of premature drug-release in the cases of 5a, 5c, and 5d was next determined in order to identify the linker best-suited for delivering the drug payload intracellularly. An established technique for blocking the cellular uptake of Gemcitabine by using S (4-nitrobenzyl)-6-thioinosine (6) was employed, which is known to inhibit human equilibrative nucleoside transporters, such as hENT1. Because hENT1 is a critical regulator of the cellular internalization of Gemcitabine, it was reasoned that by inhibiting its activity with 6, the cytotoxic effect of any drug payload that was released in the extracellular environment could be diminished. It was anticipated that this would allow the distinction between KDCs that were potent due to the undesirable release of Gemcitabine outside of the cell from those that released Gemcitabine intracellularly (FIG. 6). The extent of premature drug release in the extracellular environment was studied by inhibiting activity of nucleoside transporters (such as hENT1) of U87MG cells through the use of the hENT1 inhibitor S-(4-nitrobenzyl)-6-thioinosine (6). […] In a similar fashion, it was expected that for KDCs which released a significant amount of the drug payload in the extracellular environment, an increase in the concentration of 6 should result in a concomitant increase in ED50 value.
# Media used to prepare varying concentrations of drug, protein, or protein-drug conjugate also contained varying concentrations of the hENT1 inhibitor, 6. Additionally, prior to treatment, cell were incubated at 37° C., 5% CO2 with fresh media containing the varying concentrations of 6 for 2 h. Cell proliferation was measured using the Cell Counting Kit-8 by replacing the media in each well with 100 μL of media containing 10% WST-8. After incubation for 1 h at 37° C., absorbance at 450 nm was measured with a Synergy H4 microtiter plate reader. ED50 values were determined by nonlinear regression analysis. Example dose-response curves for 3 (FIG. 7) and 5d (FIG. 8) are provided. Cell proliferation was measured according to the method described in Section 1.3. Error bars represent the standard deviation of experiments performed in triplicate.
# These values were normalized as Fold Increase in ED50 (defined in Equation 2) by dividing the ED50 of each drug when 6 was co-administered at concentration=C by the ED50 of that same drug when no 6 was added, then subtracting 1 (thus, a “0-fold increase” would mean no increase, while a “1-fold increase” would mean that the ED50 value had doubled). Fold Increase in ED50 for each drug at each concentration of 6 is provided in Table 5, and these values were used to generate FIG. 9.
# U87MG cells [2] = test: Integrin-blocking competition: cell proliferation (CCK-8) after pre-treatment with EETI-2.5F (1); type: cell-based; details: 1 μM 1, 3 h pre-treatment and co-treatment
# Description: as §1
# One possible explanation for the apparent hENT1-independence of 5d is that its route of internalization could be integrin-mediated. The role of integrin-binding in the biological potency and hENT1-independence of 5d was determined. A competition experiment was carried out in which U87MG cells were pre-treated with unconjugated EETI-2.5F (1) in order to block integrins on the cell surface. The role of integrin-binding was studied by measuring the proliferation of U87MG cells that had been pre-treated with EETI-2.5F (1) when exposed to increasing doses of 3 and KDCs 5a, 5c, and 5d. […] Media used to prepare varying concentrations of drug, protein, or protein-drug conjugate also contained 1 μM of 1. Prior to treatment, cells were incubated for 3 h at 37° C., 5% CO2 with fresh media containing 1 μM 1. After this pre-treatment, cells were incubated with varying concentrations of 5a, 5c, or 5d for 24 h and then media was replaced with fresh media and cells were incubated for an additional 48 h. Cell proliferation was measured using the Cell Counting Kit-8 by replacing the media in each well with 100 μL of media containing 10% WST-8. After incubation for 1 h at 37° C., absorbance at 450 nm was measured with a Synergy H4 microtiter plate reader. Cell proliferation was measured according to the method described in Section 1.3. Error bars represent the standard deviation of experiments performed in triplicate.
# U87MG cells [3] = test: Competition binding assay with AF488-labeled EETI-2.5F (AF488-1), flow cytometry; details: for IC50: competition with 1 nM AF488-1, 4° C., 3 hours, read-out: IC50 (nM), binding affinity
# Description: Once the knottin-drug conjugates 5a-d were prepared, their binding affinity to U87MG glioblastoma cells, which are known to have elevated expression of tumor-associated integrins, was tested. […] To measure the relative binding affinities of knottins 1 and 2 and KDCs 5a-d, competition binding assays were performed using AlexaFluor 488-conjugated EETI-2.5F (AF488-1) as previously described (J. W. Kim, et al., J. Am. Chem. Soc. 2015, 137, 6-9). Cells (5×10^4 per sample) were detached with 0.05% Trypsin-EDTA, washed with IBB (25 mM Tris pH 7.4, 150 mM NaCl, 2 mM CaCl2, 1 mM MgCl2, 1 mM MnCl2, and 0.1% bovine serum albumin), and incubated with 1 nM AF488-1 and varying concentrations of competitors in 800 μL of IBB at 4° C. for 3 hours. The cells were washed twice with 800 μL of PBSA (phosphate buffered saline containing 0.1% bovine serum albumin) and the fluorescence of the surface-bound AF488-1 was determined using flow cytometry. The fluorescence was normalized to that of cells treated with AF488-1 alone to obtain the fraction bound. Half-maximal inhibitory concentration (IC50) values were determined by nonlinear regression analysis. Error bars represent the standard deviation of experiments performed in triplicate.
# U87MG cells [4] = test: Cell proliferation, CCK-8 colorimetric assay; type: cell-based; details: U87MG cells; for Potency / growth inhibition in U87MG cells (in words): 4 d; for EC50: 4 d incubation, vs untreated control, read-out: ED50 (nM), potency
# Description: as §1
# Next, the potency of each KDC was tested in a cell-proliferation experiment. […] Cells were seeded in a 96-well plate at a density of 2,500 cells per well and grown overnight at 37° C., 5% CO2 in DMEM with 10% FBS and 1% penicillin/streptomycin. Cells were subsequently treated with 100 μL of fresh media, containing varying concentrations of drug, protein, or protein-drug conjugate and incubated for 4 d at 37° C., 5% CO2. Cell proliferation was measured according to the method described in Section 1.3. Error bars represent the standard deviation of experiments performed in triplicate. […] Given that the linker must be cleaved to release free Gemcitabine in order for the payload to become active, the low potency of 5b can be explained by the greater stability of the carbamate group as compared to the other linkers tested.
compound,measurement,setting,value
CC(C)C[C@@H]1NC(=O)[C@@H]2CSSC[C@@H](C(=O)NCC(=O)O)NC(=O)[C@H](Cc3ccccc3)NC(=O)CNC(=O)[C@H](CC(N)=O)NC(=O)[C@@H]3CCCN3C(=O)CNC(=O)[C@@H]3CSSC[C@H](NC(=O)[C@H]([C@@H](C)O)NC(=O)[C@H](CC(C)C)NC(=O)[C@@H]4CCCN4C(=O)[C@@H]4CCCN4C(=O)[C@H](CC(N)=O)NC(=O)[C@H](CC(=O)O)NC(=O)CNC(=O)[C@H](CCCNC(=N)N)NC(=O)[C@@H]4CCCN4C(=O)[C@H](CCCNC(=N)N)NC(=O)[C@@H]4CCCN4C(=O)[C@@H](NC(=O)CN)CSSC[C@H](NC(=O)CNC(=O)[C@H](C)NC1=O)C(=O)N[C@@H](C(C)C)C(=O)N3)C(=O)N[C@@H](CCCn1cc(CCC(=O)OC[C@H]3O[C@@H](n4ccc(N)nc4=O)C(F)(F)[C@@H]3O)nn1)C(=O)N[C@@H](CCC(N)=O)C(=O)N[C@@H](CC(=O)O)C(=O)N[C@@H](CO)C(=O)N[C@@H](CC(=O)O)C(=O)N2 [5a],Effect of hENT1 inhibitor 6 on potency (ED50) (in words),"U87MG cells [1]; U87MG cells, increasing concentrations of 6 up to 10 μM",increased significantly
same,Fold Increase in ED50 in U87MG Cells,U87MG cells [1]; [6] = 0 nM,0
same,Fold Increase in ED50 in U87MG Cells,U87MG cells [1]; [6] = 1 nM,1.1 ± 0.5
same,Fold Increase in ED50 in U87MG Cells,U87MG cells [1]; [6] = 10 nM,3.2 ± 0.3
same,Fold Increase in ED50 in U87MG Cells,U87MG cells [1]; [6] = 100 nM,14.5 ± 0.5
same,Fold Increase in ED50 in U87MG Cells,U87MG cells [1]; [6] = 1000 nM,17.9 ± 0.0
same,Fold Increase in ED50 in U87MG Cells,U87MG cells [1]; [6] = 10000 nM,134.7 ± 0.4
same,Effect of integrin blocking by pre-treatment with 1 on potency (in words),U87MG cells [2],did not diminish the potency
same,IC50,U87MG cells [3],5.2 ± 3.6 nM
same,Potency / growth inhibition in U87MG cells (in words),U87MG cells [4],low-nanomolar ED50 values
same,EC50,U87MG cells [4],8.5 ± 3.3 nM
CC(C)C[C@@H]1NC(=O)[C@@H]2CSSC[C@@H](C(=O)NCC(=O)O)NC(=O)[C@H](Cc3ccccc3)NC(=O)CNC(=O)[C@H](CC(N)=O)NC(=O)[C@@H]3CCCN3C(=O)CNC(=O)[C@@H]3CSSC[C@H](NC(=O)[C@H]([C@@H](C)O)NC(=O)[C@H](CC(C)C)NC(=O)[C@@H]4CCCN4C(=O)[C@@H]4CCCN4C(=O)[C@H](CC(N)=O)NC(=O)[C@H](CC(=O)O)NC(=O)CNC(=O)[C@H](CCCNC(=N)N)NC(=O)[C@@H]4CCCN4C(=O)[C@H](CCCNC(=N)N)NC(=O)[C@@H]4CCCN4C(=O)[C@@H](NC(=O)CN)CSSC[C@H](NC(=O)CNC(=O)[C@H](C)NC1=O)C(=O)N[C@@H](C(C)C)C(=O)N3)C(=O)N[C@@H](CCCn1cc(CCCNC(=O)OC[C@H]3O[C@@H](n4ccc(N)nc4=O)C(F)(F)[C@@H]3O)nn1)C(=O)N[C@@H](CCC(N)=O)C(=O)N[C@@H](CC(=O)O)C(=O)N[C@@H](CO)C(=O)N[C@@H](CC(=O)O)C(=O)N2 [5b],IC50,U87MG cells [3],3.3 ± 0.2 nM
same,Potency / growth inhibition in U87MG cells (in words),U87MG cells [4],lacked significant potency
same,EC50,U87MG cells [4],> 1000 nM
"CC(C)C[C@@H]1NC(=O)[C@@H]2CSSC[C@@H](C(=O)NCC(=O)O)NC(=O)[C@H](Cc3ccccc3)NC(=O)CNC(=O)[C@H](CC(N)=O)NC(=O)[C@@H]3CCCN3C(=O)CNC(=O)[C@@H]3CSSC[C@H](NC(=O)[C@H]([C@@H](C)O)NC(=O)[C@H](CC(C)C)NC(=O)[C@@H]4CCCN4C(=O)[C@@H]4CCCN4C(=O)[C@H](CC(N)=O)NC(=O)[C@H](CC(=O)O)NC(=O)CNC(=O)[C@H](CCCNC(=N)N)NC(=O)[C@@H]4CCCN4C(=O)[C@H](CCCNC(=N)N)NC(=O)[C@@H]4CCCN4C(=O)[C@@H](NC(=O)CN)CSSC[C@H](NC(=O)CNC(=O)[C@H](C)NC1=O)C(=O)N[C@@H](C(C)C)C(=O)N3)C(=O)N[C@@H](CCCN=[N+]=[N-])C(=O)N[C@@H](CCC(N)=O)C(=O)N[C@@H](CC(=O)O)C(=O)N[C@@H](CO)C(=O)N[C@@H](CC(=O)O)C(=O)N2 [compound 2] (H-GCPRPRGDNPPLTC[Orn(N3)]QDSDCLAGCVCGPNGFCG-OH; disulfide 2-24, 14-26, 20-32; N-terminus and C-terminus assumed)",Binding affinity to U87MG cells (in words),U87MG cells [3],low-nanomolar binding affinity
same,IC50,U87MG cells [3],1.1 ± 1.8 nM
same,Potency / growth inhibition in U87MG cells (in words),U87MG cells [4],did not show significant growth-inhibition activity
same,EC50,U87MG cells [4],> 1000 nM
